Measurements taken from patent US10253002B2, “Compounds and methods of treating infections” (Neoculi Pty Ltd., priority 2013, dated 2019).
≈ marks a conversion by molar mass, not a printed value. Read-outs that look alike come from different tables or passages of the source.

Columns and labels:
[1] = system: MRSA; assay: Broth microdilution MIC, Example 7 (NCL812 and analogues); assay type: cell-based, Staphylococcus aureus; conditions: for MIC: Staphylococcus aureus, MRSA
Method in brief: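 Turbidity read visually and then at 600 nm defined the MIC (μg/ml), comparing drug-containing wells with a growth-control well lacking antimicrobial. Testing followed the CLSI broth microdilution method, in duplicate, using two strains per organism group.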

[2] = system: S. aureus clinical isolates (MRSA and MSSA); assay: Broth microdilution MIC, Example 4; assay type: cell-based, Staphylococcus aureus
Procedure: Microtiter plates containing two-fold dilutions of each antimicrobial agent were inoculated with ˜10^5 CFU/ml of each isolate in a 100 μL final volume. Plates were incubated for 24 h at 37° C. Turbidity (absorbance at OD600) was measured using a Bio-Rad Benchmark Plus microplate spectrophotometer in Microplate Manager® version 5.2.1 (Bio-Rad). Minimum inhibitory concentration (MIC) endpoints were defined as the lowest antimicrobial concentration assessed by the spectrophotometer that inhibited bacterial growth. ATCC 49775 was included in the isolate collection as a control organism using breakpoints defined by the CLSI. The MIC50, MIC90 (concentrations that inhibited growth of the lower 50% and 90% of total organisms, respectively), and MIC range (minimum and maximum) were calculated to profile the antimicrobial susceptibility of the isolate collection.

[3] = system: Escherichia coli; assay: Broth microdilution MIC, Example 7 (NCL812 and analogues); assay type: cell-based
[4] = system: Staphylococcus pseudintermedius isolates (MSSP and MRSP); assay: MIC (CLSI), Example 6; assay type: cell-based; conditions: for MIC: Staphylococcus pseudintermedius
Procedure: Anti-staphylococcal compounds were then tested against all 23 isolates and minimum inhibitory concentrations (MIC) were determined according to standard protocols. After the MICs were determined, the minimum bactericidal concentrations were performed to determine if these compounds are bacteriostatic or bacteriocidal.

[5] = 23 Staphylococcus pseudintermedius isolates

`N=C(N/N=C/c1ccc(Cl)cc1)N/N=C/c1ccc(Cl)cc1` [NCL812, 1,3-bis[(E)-(4-chlorophenyl)methyleneamino]guanidine] gave an MIC ([1]; MRSA 616, Phase I, 1st, read-out: MIC) of 8 µg/mL (≈ 23.9 µM), an MIC ([1]; MRSA 718, Phase I, 2nd, read-out: MIC) of 8 µg/mL (≈ 23.9 µM) and an MIC ([1]; MRSA 747, Phase I, 1st, read-out: MIC) of 8 µg/mL (≈ 23.9 µM). For the same compound, the MIC ([1]; bioassay ranking, read-out: MRSA) was 3 µg/mL (≈ 8.98 µM), the “MIC (μg/ml) at 24 hours, MRSA 2” value ([1]; isolate MRSA 2, 24 hours, 1st and 2nd replicate rows) was 2 µg/mL (≈ 5.98 µM) and the MICrange ([2]; CA-MRSA (n = 10)) was 2 to 4 µg/mL. For the same compound, the MICrange ([2]; Methicillin-susceptible staphylococci (n = 10)) was 2 to 8 µg/mL, the MICrange ([2]; Total bacterial isolates (n = 30)) was 2 to 8 µg/mL and the “MIC (μg/ml) at 24 hours, E. coli” value ([3]; 24 hours, 1st and 2nd replicate rows) was greater than 128 µg/mL. It also gave an MIC ([3]; E. coli, 1st) greater than 128 µg/mL, an MIC ([3]; E. coli, 2nd) greater than 128 µg/mL and an MIC ([3]; Escherichia coli, read-out: MIC (μg/ml) at 24 hours, E. coli, 24 hours, 1st and 2nd replicate rows) greater than 128 µg/mL. For the same compound, the MIC ([3]; Escherichia coli, read-out: MIC) was greater than 128 µg/mL, the MIC50 [4, 5] was 2 µg/mL (≈ 5.98 µM) and the MIC range [4, 5] was 1 to 4 µg/mL. It also gave an MIC range ([4]; Staphylococcus pseudintermedius isolates) of 1 to 4 µg/mL, an MIC ([4]; 23 Staphylococcus pseudintermedius isolates, read-out: MIC mode) of 2 µg/mL (≈ 5.98 µM) and an MIC ([4]; Staphylococcus pseudintermedius isolates, read-out: MIC mode) of 2 µg/mL (≈ 5.98 µM). The MIC ([4]; isolate S2P2, read-out: MIC) was 2 µg/mL (≈ 5.98 µM), the MIC ([4]; isolate S3P3, read-out: MIC) was 2 µg/mL (≈ 5.98 µM) and the MIC ([4]; isolate S4P4, read-out: MIC) was 1 µg/mL (≈ 2.99 µM). It also gave an MIC ([4]; isolate S5P5, read-out: MIC) of 2 µg/mL (≈ 5.98 µM), an MIC ([4]; isolate S6P6, read-out: MIC) of 2 µg/mL (≈ 5.98 µM) and an MIC ([4]; isolate S7P7, read-out: MIC) of 2 µg/mL (≈ 5.98 µM). It also gave an MIC ([4]; isolate S8P8, read-out: MIC) of 2 µg/mL (≈ 5.98 µM), an MIC ([4]; isolate S9P9, read-out: MIC) of 2 µg/mL (≈ 5.98 µM) and an MIC ([4]; isolate S10P10, read-out: MIC) of 2 µg/mL (≈ 5.98 µM). The MIC ([4]; isolate S12P12, read-out: MIC) was 2 µg/mL (≈ 5.98 µM), the MIC ([4]; isolate S13P13, read-out: MIC) was 2 µg/mL (≈ 5.98 µM) and the MIC ([4]; isolate S14P14, read-out: MIC) was 2 µg/mL (≈ 5.98 µM). The MIC ([4]; isolate S16P16, read-out: MIC) was 2 µg/mL (≈ 5.98 µM), the MIC ([4]; isolate S17P17, read-out: MIC) was 2 µg/mL (≈ 5.98 µM) and the MIC ([4]; isolate S21P21, read-out: MIC) was 2 µg/mL (≈ 5.98 µM). It also gave an MIC ([4]; isolate S23P23, read-out: MIC) of 2 µg/mL (≈ 5.98 µM).
